CC50 data for 3 compounds are collected here from publication PMC10525445, “Antitrypanosomal Activity of 1,2,3-Triazole-Based Hybrids Evaluated Using In Vitro Preclinical Translational Models” (Biology, 2023).

A value given as a limit tells only on which side of the number the result lay.

For data set [1], the system named is 3D cardiac microtissue (heart muscle cells). As to the kind of experiment: Cardiotoxic effect on 3D cardiac spheroids. The data set is classed as cell-based, Swiss Webster mice. As to conditions: 72 h, up to 500 µM, read-out: Toxicity 3D Culture (CC50). The protocol:
(§1) Primary heart muscle cell cultures were obtained from fetuses of female Swiss Webster mice, as previously described. After heart removal and ventricle fragmentation, tissue fragments were dissociated in a trypsin and collagenase type II (Worthington Biochemical Corporation, Lakewood, USA) dissociation solution. For two-dimensional (2D) cultures, the isolated cardiac cells were seeded at a density of 5 × 10^4 cells/well in gelatin (0.1%)-coated 96-well white culture plates. Three-dimensional (3D) cardiac spheroids were obtained after seeding isolated heart muscle cells at a density of 2.5 × 10^4 cells/well in an agarose (1%)-coated 96-well U-bottom plate, as described in [35]. Heart muscle cells cultures were cultivated in Dulbecco’s modified Eagle medium (DMEM) supplemented with 7% FBS, 2.5 mM CaCl2, 2% embryo extract, and 1 mM L-glutamin and maintained at 37 °C in a humidified atmosphere of 5% CO2. All procedures with animals were approved by the Animal Care and Use Committee at the Oswaldo Cruz Institute (license L-017/2022).
(§2) The toxic effect of the triazole series was evaluated on VERO cell monolayers. After seeding for 24 hours, VERO cells were treated for 72 h at 37 °C with the 1,2,3-triazole derivatives and Bz, the reference drug, with a range of concentration from 15.62 to 500 µM. Controls were performed with a non-toxic concentration of dimethyl sulfoxide (DMSO; ≤0.1%) used in the experimental assays. Cell viability was determined by measuring ATP level using a CellTiter Glo kit. The luminescence read was performed using a Glomax microplate reader (Promega Corporation, Madison, WI, EUA). The cytotoxicity concentration 50 (CC50), the drug concentration that reduces cell viability by 50%, was calculated using linear regression. […] Cultures were exposed for 72 h to compound concentrations up to 500 µM, following the protocol mentioned above. At least 3 independent assays were performed in duplicate.

Data set [2] concerns heart muscle cells (2D culture). As to the kind of experiment: Cardiotoxic effect on 2D primary heart muscle cell culture. The data set is classed as cell-based, Swiss Webster mice. The conditions noted are these: heart muscle cell monolayers, 72 h, up to 500 µM; read-out: Toxicity 2D Culture (CC50). On the procedure: as §1, §2
Another data set has as its system VERO cells. The data set can be described thus: Cytotoxicity on VERO cell monolayers (CellTiter Glo, 72 h). The data set is classed as cell-based. As to conditions: ATP level. On the procedure: as §2, with “VERO cells (Rio de Janeiro Cell Bank code 0245) were cultivated in RPMI 1640 medium supplemented with 10% fetal bovine serum (FBS) at 37 °C in a humidified atmosphere of 5% CO2. Confluent monolayers were dissociated with trypsin-EDTA solution (0.025%), and isolated cells were seeded on culture plates or flasks, depending on the experimental assay. The VERO cell cultures were used in cytotoxicity and phenotypic screening assays and for obtaining culture-derived trypomastigotes. The toxic” for “The toxic”
Background: Cellular ATP, detected with luciferase, serves as a proxy for viable cell number.

Data set [3] is described as follows: Cardiotoxic effect on 3D cardiac spheroids. The data set is classed as cell-based, Swiss Webster mice. The conditions noted are these: Swiss Webster, mouse, 3D cardiac spheroids of primary fetal heart muscle cells, 3D cardiac microtissue, up to 500 µM, read-out: Toxicity 3D Culture (CC50). On the procedure: as §1, §2
Data set [4] in a line: Cardiotoxic effect on 2D primary heart muscle cell culture. The data set is classed as cell-based, Swiss Webster mice. As to conditions: Swiss Webster, mouse, primary fetal heart muscle cells, 2D monolayer culture, heart muscle cell monolayers, up to 500 µM, read-out: Toxicity 2D Culture (CC50). The protocol:
as §1, §2

Data set [5] is described as follows: Cytotoxicity on VERO cell monolayers (CellTiter Glo, 72 h). The conditions noted are these: African green monkey, VERO cell monolayers, ATP level, read-out: Cytotoxicity VERO Cells CC50. The data set is classed as cell-based. On the procedure:
as §2, with “VERO cells (Rio de Janeiro Cell Bank code 0245) were cultivated in RPMI 1640 medium supplemented with 10% fetal bovine serum (FBS) at 37 °C in a humidified atmosphere of 5% CO2. Confluent monolayers were dissociated with trypsin-EDTA solution (0.025%), and isolated cells were seeded on culture plates or flasks, depending on the experimental assay. The VERO cell cultures were used in cytotoxicity and phenotypic screening assays and for obtaining culture-derived trypomastigotes. The toxic” for “The toxic”

Turning to “4-Phenyl-1-(m-tolyl)-1H-1,2,3-triazole [Triazole 1f]”, the half-maximal cytotoxic concentration (CC50) (in general, the concentration that lowers cell viability or growth by half) in data set [1] is greater than 500 µM; in data set [2], 111 ± 10.1 µM; in the data set with VERO cells it was 86.8 ± 2.73 µM.
As for `COc1ccc(-n2cc(-c3ccccc3)nn2)cc1` [Triazole 1d, 1-(4-Methoxyphenyl)-4-phenyl-1H-1,2,3-triazole], the CC50 at 72 h in data set [3], in data set [4] and in data set [5] was greater than 500 µM in each case.
On to `c1ccc(-c2cn(-c3ccccc3)nn2)cc1` [Triazole 1g, 1-(4-Diphenyl)-1H-1,2,3-triazole], for which the CC50 at 72 h in data set [3], in data set [4] and in data set [5] was greater than 500 µM each time.
